Results taken from the NIST ThermoML archive (doi:10.1016/j.fluid.2011.12.029).

Settings: Liquid, Vibrating tube method

CCCC[n+]1cccc(C)c1.N#C[N-]C#N [1-butyl-3-methylpyridinium dicyanamide]
Settings | mass density [kg/m3]
283.15 K, 100 kPa | 1058.8
283.15 K, 5000 kPa | 1060.66
283.15 K, 10000 kPa | 1062.55
283.15 K, 15000 kPa | 1064.33
283.15 K, 20000 kPa | 1066.19
283.15 K, 25000 kPa | 1067.75
288.15 K, 100 kPa | 1055.64
288.15 K, 5000 kPa | 1057.59
288.15 K, 10000 kPa | 1059.47
288.15 K, 15000 kPa | 1061.24
288.15 K, 20000 kPa | 1063.09
288.15 K, 25000 kPa | 1064.88
288.15 K, 30000 kPa | 1066.59
288.15 K, 35000 kPa | 1068.35
288.15 K, 40000 kPa | 1070.07
288.15 K, 45000 kPa | 1071.67
288.15 K, 50000 kPa | 1073.24
293.15 K, 100 kPa | 1052.56
293.15 K, 5000 kPa | 1054.46
293.15 K, 10000 kPa | 1056.37
293.15 K, 15000 kPa | 1058.23
293.15 K, 20000 kPa | 1060.01
293.15 K, 25000 kPa | 1061.8
293.15 K, 30000 kPa | 1063.56
293.15 K, 35000 kPa | 1065.35
293.15 K, 40000 kPa | 1066.96
293.15 K, 45000 kPa | 1068.69
293.15 K, 50000 kPa | 1070.15
293.15 K, 55000 kPa | 1072.13
293.15 K, 60000 kPa | 1073.41
293.15 K, 65000 kPa | 1074.96
298.15 K, 100 kPa | 1049.45
298.15 K, 5000 kPa | 1051.35
298.15 K, 10000 kPa | 1053.24
298.15 K, 15000 kPa | 1055.19
298.15 K, 20000 kPa | 1057.08
298.15 K, 25000 kPa | 1058.87
298.15 K, 30000 kPa | 1060.59
298.15 K, 35000 kPa | 1062.37
298.15 K, 40000 kPa | 1064.1
298.15 K, 45000 kPa | 1065.73
298.15 K, 50000 kPa | 1067.37
298.15 K, 55000 kPa | 1069.04
298.15 K, 60000 kPa | 1070.61
298.15 K, 65000 kPa | 1072.1
303.15 K, 100 kPa | 1046.36
303.15 K, 5000 kPa | 1048.3
303.15 K, 10000 kPa | 1050.18
303.15 K, 15000 kPa | 1052.05
303.15 K, 20000 kPa | 1053.94
303.15 K, 25000 kPa | 1055.82
303.15 K, 30000 kPa | 1057.57
303.15 K, 35000 kPa | 1059.35
303.15 K, 40000 kPa | 1061.07
303.15 K, 45000 kPa | 1062.75
303.15 K, 50000 kPa | 1064.4
303.15 K, 55000 kPa | 1066.19
303.15 K, 60000 kPa | 1067.59
303.15 K, 65000 kPa | 1069.21
308.15 K, 100 kPa | 1043.21
308.15 K, 5000 kPa | 1045.23
308.15 K, 10000 kPa | 1047.28
308.15 K, 15000 kPa | 1049.14
308.15 K, 20000 kPa | 1051.02
308.15 K, 25000 kPa | 1052.92
308.15 K, 30000 kPa | 1054.8
308.15 K, 35000 kPa | 1056.51
308.15 K, 40000 kPa | 1058.23
308.15 K, 45000 kPa | 1059.9
308.15 K, 50000 kPa | 1061.71
308.15 K, 55000 kPa | 1063.27
308.15 K, 60000 kPa | 1064.76
308.15 K, 65000 kPa | 1066.44
313.15 K, 100 kPa | 1040.26
313.15 K, 5000 kPa | 1042.22
313.15 K, 10000 kPa | 1044.29
313.15 K, 15000 kPa | 1046.25
313.15 K, 20000 kPa | 1048.15
313.15 K, 25000 kPa | 1050.05
313.15 K, 30000 kPa | 1051.8
313.15 K, 35000 kPa | 1053.63
313.15 K, 40000 kPa | 1055.42
313.15 K, 45000 kPa | 1057.11
313.15 K, 50000 kPa | 1058.82
313.15 K, 55000 kPa | 1060.43
313.15 K, 60000 kPa | 1062.05
313.15 K, 65000 kPa | 1063.59
318.15 K, 100 kPa | 1037.22
318.15 K, 5000 kPa | 1039.29
318.15 K, 10000 kPa | 1041.17
318.15 K, 15000 kPa | 1043.3
318.15 K, 20000 kPa | 1045.08
318.15 K, 25000 kPa | 1046.98
318.15 K, 30000 kPa | 1048.91
318.15 K, 35000 kPa | 1050.75
318.15 K, 40000 kPa | 1052.38
318.15 K, 45000 kPa | 1054.09
318.15 K, 50000 kPa | 1055.97
318.15 K, 55000 kPa | 1057.54
318.15 K, 60000 kPa | 1059.3
318.15 K, 65000 kPa | 1060.96
323.15 K, 100 kPa | 1034.21
323.15 K, 5000 kPa | 1036.41
323.15 K, 10000 kPa | 1038.36
323.15 K, 15000 kPa | 1040.45
323.15 K, 20000 kPa | 1042.21
323.15 K, 25000 kPa | 1044.3
323.15 K, 30000 kPa | 1046.05
323.15 K, 35000 kPa | 1047.94
323.15 K, 40000 kPa | 1049.73
323.15 K, 45000 kPa | 1051.45
323.15 K, 50000 kPa | 1053.22
323.15 K, 55000 kPa | 1054.85
323.15 K, 60000 kPa | 1056.49
323.15 K, 65000 kPa | 1058.03
328.15 K, 100 kPa | 1031.21
328.15 K, 5000 kPa | 1033.17
328.15 K, 10000 kPa | 1035.31
328.15 K, 15000 kPa | 1037.3
328.15 K, 20000 kPa | 1039.35
328.15 K, 25000 kPa | 1041.31
328.15 K, 30000 kPa | 1042.96
328.15 K, 35000 kPa | 1044.93
328.15 K, 40000 kPa | 1046.72
328.15 K, 45000 kPa | 1048.66
328.15 K, 50000 kPa | 1050.54
328.15 K, 55000 kPa | 1052.18
328.15 K, 60000 kPa | 1053.85
328.15 K, 65000 kPa | 1055.47
333.15 K, 100 kPa | 1027.63
333.15 K, 5000 kPa | 1030.21
333.15 K, 10000 kPa | 1032.34
333.15 K, 15000 kPa | 1034.45
333.15 K, 20000 kPa | 1036.45
333.15 K, 25000 kPa | 1038.36
333.15 K, 30000 kPa | 1040.39
333.15 K, 35000 kPa | 1042.19
333.15 K, 40000 kPa | 1044.05
333.15 K, 45000 kPa | 1045.58
333.15 K, 50000 kPa | 1047.67
333.15 K, 55000 kPa | 1049.26
333.15 K, 60000 kPa | 1051.06
333.15 K, 65000 kPa | 1052.61
